Assay results from patent US5599793A, “Antithromobotic agents” (Eli Lilly and Company, priority 1995, dated 1997).

Assays:
Human Thrombin = Human Thrombin (Homo sapiens, UniProt P00734); test: Inhibition of amidase activity of thrombin (Kass); assay type: biochemical; details: apparent association constant, mean over a range of concentrations
Protocol: (§1) The assay is carried out by mixing 50 μL buffer (0.03M Tris, 0.15M NaCl, pH 7.4) with 25 μL of bovine thrombin or human thrombin solution (0.21 mg/mL of thrombostat bovine thrombin, Parke-Davis, or purified human thrombin, Enzyme Research Laboratories, South Bend, Ind., at about 8 NIH units/mL, in the same buffer) and 25 μL of test compound in a solvent (in 50% aqueous methanol, v:v). The 150 μL of an aqueous solution of the chromogenic substrate (at 0.25 mg/mL) are added and the rates of hydrolysis of the substrate are measured by monitoring the reactions at 405 nm for the release of p-nitroaniline. Standard curves are constructed by plotting free thrombin concentration against hydrolysis rate. The hydrolysis rates observed with test compounds are then converted to "free thrombin" values in the respective assays by use of the standard curves. The bound thrombin (bound to test compound) is calculated by subtracting the amount of free thrombin observed in each assay from the known initial amount of thrombin used in the assay. The amount of free inhibitor in each assay is calculated by subtracting the number of moles of bound thrombin from the number of moles of added inhibitor (test compound).
The Kass value is the hypothetical equilibrium constant for the reaction between thrombin and the test compound (I). [drawing 54]
(§2) Kass is calculated for a range of concentrations of test compounds and the mean value is reported in units of liter per mole.

factor Xa = target: T1, factor Xa (Homo sapiens, UniProt P00742); test: Serine protease selectivity, chromogenic substrate (Kass), factor Xa; assay type: biochemical; details: substrate N-Benzoyl-Ile-Glu-Gly-Arg-p-nitroanilide
T1 construct: Human factors X, Xa, IXa, XIa, and XIIa are purchased; purchased Enzyme Research Laboratories, South Bend, Ind
Protocol: as §1, §2
(§3) By substantially following the procedures described above for human thrombin, and using other human blood coagulation system serine proteases and proteases of the fibrinolytic system with the appropriate chromogenic substrates, identified below, selectivity of the compounds of the present invention with respect to the coagulation factor serine proteases and with respect to the fibrinolytic system serine proteases are evaluated as well as their substantial lack of interference with serine proteases of the fibrinolytic system. Thrombin inhibitors preferably should spare fibrinolysis induced by urokinase, tissue plasminogen activator (t-PA) and streptokinase. This would be important to the therapeutic use of such agents as an adjunct to streptokinase, t-PA or urokinase thrombolytic therapy and to the use of such agents as an endogenous fibrinolysis-sparing (with respect to t-PA and urokinase) antithrombotic agent. In addition to the lack of interference with the amidase activity of the fibrinolytic proteases, such fibrinolytic system sparing can be studied by the use of human plasma clots and their lysis by the respective fibrinolytic plasminogen activators.
(§4) Human factors X, Xa, IXa, XIa, and XIIa are purchased from Enzyme Research Laboratories, South Bend, Ind.; human urokinase from Leo Pharmaceuticals, Denmark; and recombinant activated Protein C (aPC) is prepared at Eli Lilly and Co. substantially according to U.S. Pat. No. 4,981,952. Chromogenic substrates: N-Benzoyl-Ile-Glu-Gly-Arg-p-nitroanilide (for factor Xa); N-Cbz-D-Arg-Gly-Arg-p-nitroanilide (for factor IXa assay as the factor Xa substrate); Pyroglutamyl-Pro-Arg-p-nitroanilide (for Factor XIa and for aPC); H-D-Pro-Phe-Arg-p-nitroanilide (for factor XIIa); and Pyroglutamyl-Gly-Arg-p-nitroanilide (for urokinase); are purchased from KabiVitrum, Stockholm, Sweden, or from Midwest Biotech, Fishers, Ind. Bovine trypsin is purchased from Worthington Biochemicals, Freehold, N.J., and human plasma kallikrein from Kabi Vitrum, Stockholm, Sweden. Chromogenic substrate H-D-Pro-Phe-Arg-p-nitroanilide for plasma kallikrein is purchased from Kabi Vitrum, Stockholm, Sweden. N-Benzoyl-Phe-Val-Arg-p-nitroanilide, the substrate for human thrombin and for trypsin, is synthesized according to procedures described above for the compounds of the present invention, using known methods of peptide coupling from commercially available reactants or purchased from Midwest Biotech, Fishers, Ind.

Trypsin = target: T2, Trypsin (Bos taurus, UniProt P00760); test: Serine protease selectivity, chromogenic substrate (Kass), trypsin; assay type: biochemical, bovine; details: substrate N-Benzoyl-Phe-Val-Arg-p-nitroanilide
T2 construct: Bovine trypsin is purchased; purchased Worthington Biochemicals, Freehold, N.J
T2 sequence (P00760 24-246): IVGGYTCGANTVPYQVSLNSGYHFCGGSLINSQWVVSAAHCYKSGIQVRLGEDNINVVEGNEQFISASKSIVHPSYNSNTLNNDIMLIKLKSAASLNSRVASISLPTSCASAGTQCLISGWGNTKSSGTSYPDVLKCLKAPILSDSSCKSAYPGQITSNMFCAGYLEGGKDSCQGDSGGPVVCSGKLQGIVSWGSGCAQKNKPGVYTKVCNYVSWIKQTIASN
Protocol: as §1, §2, §3, §4

Plasmin = target: T3, Plasmin (Homo sapiens, UniProt P00747); test: Serine protease selectivity, chromogenic substrate (Kass), plasmin; assay type: biochemical; details: substrate H-D-Val-Leu-Lys-p-nitroanilide
T3 construct: Human plasmin is purchased; purchased Boehringer Mannheim, Indianapolis, Ind
Protocol: as §1, §2, §3
(§5) Human plasmin is purchased from Boehringer Mannheim, Indianapolis, Ind.; nt-PA is purchased as single chain activity reference from American Diagnostica, Greenwich, Conn.; modified-t-PA6 (mt-PA6) is prepared at Eli Lilly and Company by procedure known in the art (See, Burck, et al., J. Biol. Chem., 265, […] (1990). Plasmin chromogenic substrate H-D-Val-Leu-Lys-p-nitroanilide and tissue plasminogen activator (t-PA) substrate H-D-Ile-Pro-Arg-p-nitroanilide are purchased from Kabi Vitrum, Stockholm, Sweden.

t-PA = target: T4, t-PA (Homo sapiens, UniProt P00750); test: Serine protease selectivity, chromogenic substrate (Kass), t-PA; assay type: biochemical; details: substrate H-D-Ile-Pro-Arg-p-nitroanilide
T4 construct: purchased American Diagnostica, Greenwich, Conn
Protocol: as §1, §2, §3, §5

Human plasma [1] = test: Human plasma anticoagulation, thrombin time (TT); assay type: biochemical; details: concentration required to double the thrombin time, linear extrapolation
Protocol: (§6) Dog plasma and rat plasma is obtained from conscious mixed-breed hounds (either sex, Hazelton-LRE, Kalamazoo, Mich., U.S.A.) or from anesthetized male Sprague-Dawley rats (Harlan Sprague-Dawley, Inc., Indianapolis, Ind., U.S.A.) by venipuncture into 3.8 percent citrate. Fibrinogen is prepared from in-date ACD human blood as the fraction I-2 according to previous procedures and specifications. Smith, Biochem. J., 185, 1-11 (1980); and Smith, et al., Biochemistry, 11, 2958-2967 (1972). Human fibrinogen is also purchased as 98 percent pure/plasmin free from American Diagnostica, Greenwich, Conn. Coagulation reagents ACTIN, Thromboplastin, and Human plasma are from Baxter Healthcare Corp., Dade Division, Miami, Fla. Bovine thrombin from Parke-Davis ([…], Mich.) is used for coagulation assays in plasma.
(§7) Coagulation assay procedures are as previously described. Smith, et al., Thrombosis Research, 50, 163-174 (1988). A CoAScreener coagulation instrument (American LABor, Inc.) is used for all coagulation assay measurements. The prothrombin time (PT) is measured by adding 0.05 mL saline and 0.05 mL Thromboplastin-C reagent to 0.05 mL test plasma. The activated partial thromboplastin time (APTT) is measured by incubation of 0.05 mL test plasma with 0.05 mL Actin reagent for 120 seconds followed by 0.05 mL CaCl2 (0.02M). The thrombin time (TT) is measured by adding 0.05 mL saline and 0.05 mL thrombin (10 NIH units/mL) to 0.05 mL test plasma. The compounds of formula I are added to human or animal plasma over a wide range of concentrations to determine prolongation effects on the APTT, PT, and TT assays. Linear extrapolations are performed to estimate the concentrations required to double the clotting time for each assay.

Human plasma [2] = test: Human plasma anticoagulation, activated partial thromboplastin time (APTT); assay type: biochemical; details: concentration required to double the APTT, linear extrapolation
Protocol: as §6, §7

Human plasma [3] = test: Human plasma anticoagulation, prothrombin time (PT); assay type: biochemical; details: concentration required to double the PT, linear extrapolation
Protocol: as §6, §7

T4 sequence (P00750 36-562): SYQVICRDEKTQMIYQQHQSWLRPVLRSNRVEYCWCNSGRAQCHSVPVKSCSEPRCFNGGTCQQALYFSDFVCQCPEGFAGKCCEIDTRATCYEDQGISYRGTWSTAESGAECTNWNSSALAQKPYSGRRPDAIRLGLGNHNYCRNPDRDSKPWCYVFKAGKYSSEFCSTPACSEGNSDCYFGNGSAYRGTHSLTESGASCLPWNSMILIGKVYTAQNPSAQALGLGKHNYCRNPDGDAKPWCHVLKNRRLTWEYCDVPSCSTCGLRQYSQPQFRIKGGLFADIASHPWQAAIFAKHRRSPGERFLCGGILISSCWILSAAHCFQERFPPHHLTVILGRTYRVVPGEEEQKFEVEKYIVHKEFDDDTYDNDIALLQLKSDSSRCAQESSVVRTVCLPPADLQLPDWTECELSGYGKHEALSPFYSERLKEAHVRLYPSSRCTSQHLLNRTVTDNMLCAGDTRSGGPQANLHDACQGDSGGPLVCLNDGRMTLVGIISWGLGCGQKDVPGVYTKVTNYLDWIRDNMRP
T3 sequence (P00747 581-810 limits assumed): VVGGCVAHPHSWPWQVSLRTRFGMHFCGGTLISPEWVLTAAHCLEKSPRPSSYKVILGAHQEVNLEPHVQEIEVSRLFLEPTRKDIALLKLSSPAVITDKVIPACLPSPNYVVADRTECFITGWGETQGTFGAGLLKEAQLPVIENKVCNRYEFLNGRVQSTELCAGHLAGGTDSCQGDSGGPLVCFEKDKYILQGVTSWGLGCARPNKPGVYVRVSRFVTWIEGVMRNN
T3 sequence (P00747 97-580 partner limits assumed): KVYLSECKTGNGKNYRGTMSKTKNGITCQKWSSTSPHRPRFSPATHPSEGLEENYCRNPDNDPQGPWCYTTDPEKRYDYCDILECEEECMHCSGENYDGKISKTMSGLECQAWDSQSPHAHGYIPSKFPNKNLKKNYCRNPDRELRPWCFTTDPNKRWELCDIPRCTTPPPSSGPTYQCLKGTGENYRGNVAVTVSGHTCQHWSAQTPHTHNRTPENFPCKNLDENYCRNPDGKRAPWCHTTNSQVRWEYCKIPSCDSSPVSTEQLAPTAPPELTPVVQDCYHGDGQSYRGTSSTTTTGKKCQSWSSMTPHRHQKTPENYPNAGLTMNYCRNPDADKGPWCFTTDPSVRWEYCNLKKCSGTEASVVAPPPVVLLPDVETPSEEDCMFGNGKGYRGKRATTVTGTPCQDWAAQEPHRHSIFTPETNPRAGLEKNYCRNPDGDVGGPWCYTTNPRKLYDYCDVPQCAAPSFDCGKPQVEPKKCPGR
T1 sequence (P00742 235-488 limits assumed): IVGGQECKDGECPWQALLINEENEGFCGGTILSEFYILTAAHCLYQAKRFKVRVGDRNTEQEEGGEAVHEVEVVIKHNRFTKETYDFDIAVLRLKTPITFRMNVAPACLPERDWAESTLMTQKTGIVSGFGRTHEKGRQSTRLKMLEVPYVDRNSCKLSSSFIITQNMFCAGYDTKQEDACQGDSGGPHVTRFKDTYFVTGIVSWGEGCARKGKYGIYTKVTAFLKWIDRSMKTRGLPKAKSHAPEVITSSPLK
T1 sequence (P00742 41-179 partner limits assumed): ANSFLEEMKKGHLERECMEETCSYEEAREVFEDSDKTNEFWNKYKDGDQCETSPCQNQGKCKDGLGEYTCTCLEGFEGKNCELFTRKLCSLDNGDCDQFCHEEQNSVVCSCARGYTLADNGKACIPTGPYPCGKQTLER

| Compound | Enzyme Kass, Human Thrombin (Human Thrombin) | Enzyme Kass, Xa (factor Xa) | Enzyme Kass, Trypsin (Trypsin) [L/mol × 10^6] | Enzyme Kass, Plasmin (Plasmin) [L/mol × 10^6] | Enzyme Kass, t-PA (t-PA) [L/mol × 10^6] | Enzyme Kass, Human Thrombin (Human Thrombin; HCl) [L/mol × 10^6] | Enzyme Kass, Xa (factor Xa; HCl) [L/mol × 10^6] | Enzyme Kass, Trypsin (Trypsin; HCl) [L/mol × 10^6] | Enzyme Kass, Plasmin (Plasmin; HCl) [L/mol × 10^6] | Enzyme Kass, t-PA (t-PA; HCl) [L/mol × 10^6] | 2x Clotting time, TT (Human plasma [1]) [ng/mL] | 2x Clotting time, APTT (Human plasma [2]) | 2x Clotting time, PT (Human plasma [3]) | 2x Clotting time, TT (Human plasma [1]; HCl) | 2x Clotting time, APTT (Human plasma [2]; HCl) | 2x Clotting time, PT (Human plasma [3]; HCl) |
| --- | --- | --- | --- | --- | --- | --- | --- | --- | --- | --- | --- | --- | --- | --- | --- | --- |
| CCS(=O)(=O)N[C@H](Cc1ccccc1)C(=O)N1[C@H](C(=O)N[C@H](C=O)CCCNC(=N)N)C[C@@H]2CCCC[C@@H]21.Cl (relative stereo) [Example 23, EtSO2 -D-Phe-cis-Ohi-ArgH.HCl] | 957 L/mol × 10^6 | 4,37 L/mol × 10^6 | 312 | 28.2 | 2.07 | – | – | – | – | – | 19 | 312 ng/mL | 746 ng/mL | – | – | – |
| Cl.Cl.N=C(N)NCCC[C@@H](C=O)NC(=O)[C@@H]1C[C@H](Oc2ccc(C(=O)O)cc2)CN1C(=O)[C@H]1CCCCN1 (relative stereo) [Example 18, D-hPro-Pro(4-cis-(4-COOH-phenoxy))-ArgH.2 HCl] | 4.5 L/mol × 10^6 | 0.58 L/mol × 10^6 | 52.2 | 0.37 | 0.013 | – | – | – | – | – | 248 | 5,969 ng/mL | 10,783 ng/mL | – | – | – |
| CC(=O)Nc1cccc(O[C@H]2C[C@@H](C(=O)N[C@H](C=O)CCCNC(=N)N)N(C(=O)[C@H]3CCCCN3)C2)c1.Cl.Cl (relative stereo) [Example 12, D-hPro-Pro(4-cis-(3-AcNH-phenoxy))-ArgH.2 HCl] | 6.1 L/mol × 10^6 | 1.2 L/mol × 10^6 | 56 | 1.1 | 0.015 | – | – | – | – | – | 210 | 1,300 ng/mL | 4,100 ng/mL | – | – | – |
| CC(=O)Nc1ccc(O[C@H]2C[C@@H](C(=O)N[C@H](C=O)CCCNC(=N)N)N(C(=O)[C@H]3CCCCN3)C2)cc1.Cl.Cl (relative stereo) [Example 10, D-hPro-Pro(4-cis-(4-AcNH-phenoxy))-ArgH.2 HCl] | 3.0 L/mol × 10^6 | 0.59 L/mol × 10^6 | 63 | 3.4 | 0.027 | – | – | – | – | – | 480 | 2,200 ng/mL | 10,000 ng/mL | – | – | – |
| CCS(=O)(=O)N[C@H](C(=O)N1C[C@@H](Oc2ccccc2)C[C@H]1C(=O)N[C@H](C=O)CCCNC(=N)N)c1ccccc1.Cl (relative stereo) [Example 16, EtSO2 -L-Phg-Pro(4-cis-phenoxy)-ArgH.HCl] | 43 L/mol × 10^6 | 6.8 L/mol × 10^6 | 180 | 4.8 | 0.26 | – | – | – | – | – | 120 | 2,400 ng/mL | 4,900 ng/mL | – | – | – |

Now from value to compound, other results behind:

| Enzyme Kass, Human Thrombin (Human Thrombin) | Enzyme Kass, Xa (factor Xa) | Enzyme Kass, Trypsin (Trypsin) [L/mol × 10^6] | Enzyme Kass, Plasmin (Plasmin) [L/mol × 10^6] | Enzyme Kass, t-PA (t-PA) [L/mol × 10^6] | Enzyme Kass, Human Thrombin (Human Thrombin; HCl) [L/mol × 10^6] | Enzyme Kass, Xa (factor Xa; HCl) [L/mol × 10^6] | Enzyme Kass, Trypsin (Trypsin; HCl) [L/mol × 10^6] | Enzyme Kass, Plasmin (Plasmin; HCl) [L/mol × 10^6] | Enzyme Kass, t-PA (t-PA; HCl) [L/mol × 10^6] | Compound | 2x Clotting time, TT (Human plasma [1]) [ng/mL] | 2x Clotting time, APTT (Human plasma [2]) | 2x Clotting time, PT (Human plasma [3]) | 2x Clotting time, TT (Human plasma [1]; HCl) | 2x Clotting time, APTT (Human plasma [2]; HCl) | 2x Clotting time, PT (Human plasma [3]; HCl) |
| --- | --- | --- | --- | --- | --- | --- | --- | --- | --- | --- | --- | --- | --- | --- | --- | --- |
| 8.7 L/mol × 10^6 | 0.48 L/mol × 10^6 | 6.2 | 0.34 | 0.002 | – | – | – | – | – | Cl.Cl.NC(N)=NCCCC(C=O)NC(=O)C1CC(Oc2ccccc2)CN1C(=O)C1NCCC2CCCCC21 [Example 14, L-1-Piq-Pro(4-cis-phenoxy)-ArgH.2 HCl] | 460 | 9,000 ng/mL | 18,000 ng/mL | – | – | – |
| – | – | – | – | – | 3.1 | 0.03 | 3.6 | 0.20 | 0.001 | Cl.Cl.N=C(N)NCCCC(C=O)NC(=O)C1CC2CCCCC2N1C(=O)C1NCCC2CCCCC21 [Example 21, L-1-cis-Piq-cis-Ohi-ArgH.2 HCl] | – | – | – | 1,199 ng/mL | 16,234 ng/mL | 30,776 ng/mL |
| 1,160 L/mol × 10^6 | 1.70 L/mol × 10^6 | 424 | 16.3 | 0.075 | – | – | – | – | – | Cl.N=C(N)NCCC[C@@H](C=O)NC(=O)[C@@H]1C[C@@H]2CCCC[C@@H]2N1C(=O)[C@@H](Cc1ccccc1)NCC(=O)O (relative stereo) [Example 24, HOOCCH2 -D-Phe-cis-Ohi-ArgH.HCl] | 11 | 490 ng/mL | 727 ng/mL | – | – | – |
